Where two headings read alike, the source gives them in different places. Peptide text beside a SMILES is read from it. * marks the point of attachment. Cbz = O=C(OCc1ccccc1)*
Experiments:
[1] = system: Ras oncogene-transformed EJ3 cells; type: cell-based, murine
Method: (§1) The ability of the peptides and their bis-carbobenzyloxy methyl ester derivatives (using BBM-CA1 A2 X; BBM-C-AMBA-M as examples) to inhibit tumor cell growth was determined by the well-known MTT assay. Ras oncogene-transformed EJ3 cells (a balbc 3T3 murine fibroblast (A-31) transformed with H-ras oncogene from a human bladder carcinoma) were exposed to various concentrations of peptides, peptidomimetics and their functionalized derivatives. Four days later, the percentage of live cells present relative to control was determined for each drug concentration. The extent of cell proliferation in the absence of drug was used as 100% proliferation.

[2] = biological target: T1, p21ras farnesyltransferase from EJ3 cells (Mus musculus, UniProt Q61239+Q8K2I1); test: p21ras farnesyltransferase inhibition, enzyme from EJ3 cells; type: biochemical, murine
T1 construct: p21ras farnesyltransferase was partially purified from EJ3 cells by DEAE-chromatography; endogenous in cells; host or cells: EJ3 cells (H-ras-transformed Balb/c 3T3 murine fibroblasts)
T1 sequence (Q8K2I1 whole entry, one chain of several): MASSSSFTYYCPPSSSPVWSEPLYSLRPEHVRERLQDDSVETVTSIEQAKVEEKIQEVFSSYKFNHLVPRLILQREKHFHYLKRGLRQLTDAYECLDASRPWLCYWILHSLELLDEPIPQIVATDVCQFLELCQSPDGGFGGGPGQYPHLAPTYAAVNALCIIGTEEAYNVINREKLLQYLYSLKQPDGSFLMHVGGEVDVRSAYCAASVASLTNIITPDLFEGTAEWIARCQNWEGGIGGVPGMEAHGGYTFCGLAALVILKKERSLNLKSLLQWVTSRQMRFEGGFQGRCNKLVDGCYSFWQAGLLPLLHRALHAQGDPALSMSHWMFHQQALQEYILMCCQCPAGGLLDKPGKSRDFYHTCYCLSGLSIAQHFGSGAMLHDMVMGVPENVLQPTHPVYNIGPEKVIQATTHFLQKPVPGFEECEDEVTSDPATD
Method: Human colon carcinoma COLO-205 cells (ATCC, Rockville, Md.) were grown to confluency in RPMI containing 10% FBS, 1% penicillin/streptomycin at 37° C and 10% Co2 atmosphere. The cells were homogenized in lysis buffer (10 mM Hepes pH 7.4, 1 mM MgCl2, 1 mM EDTA, 0.1 mM DDT, and 0.1 mM PMSF) and centrifuged at 12,000×g followed by a 60,000×g centrifugation of the supernatant. p21ras farnesyltransferase from 60,000×g supernatant fractions was then partially purified by DEAE-sephacel chromatography where it was eluted with 50 mM Tris (pH 7.5) containing 0.4M NaCl. p21ras farnesyltransferase activity was determined by measuring the amount of [3H]FPP transferred to recombinant p21H-ras as previously described (15,16). p21H-ras was isolated from E. coli strain RRI expressing p21H-ras (Hoffman-LaRoche, Inc.) as described previously (25) except for the last step of purification where HPLC was replaced by DEAE-sephacel chromatography. For peptide inhibition studios, CA1 A2 X peptides and peptidomimetics were premixed with p21ras farnesyltransferase (40 μg) prior to adding the reaction mixture (50 Mm Tris (pH. 7.5), 50 μM ZnCl2, 20 mM KCl, 1 mM DTT, 20 μM p21H-ras, 9 mmol [3H]FPP). After incubation for one hour at 37° C., the reaction was stopped and filtered on glass fibers as described earlier (15,16). […] The results for C-AMBA-M (.quadrature.), CVIM (.circle-solid.), CIIM (Δ), CVVM (.gradient.) and VCIM (.smallcircle.) are indicated in FIG. 1. The data presented is representative of three independent experiments.
The ability of CA1 A2 X tetrapeptides, peptidomimetics and corresponding functionalized derivatives to inhibit p21ras farnesyltransferase from EJ3 cells was determined in vitro as described above (Example 9). p21ras farnesyltransferase was partially purified from EJ3 cells by DEAE-chromatography as described above (Example 9) and incubated with various concentrations of peptides and peptidomimetics. The ability of these drugs to inhibit the transfer of [3H]FPP to recombinant p21ras was determined as described (Example 9).

A-31 cells = test: Cell growth inhibition, MTT assay, A-31 cells; type: cell-based, murine; settings: concentrations of 500 μM, FIG. 7B
Method: as §1
An important aspect of the invention is the finding that the antitumor activity of the peptidomimetics of the invention are selective for ras-transformed cells as compared to their non-transformed parent cell line. A-31 is a normal, non-tumorigenic cell line clone from balb murine fibroblasts. EJ3 is a tumorigenic (produces tumors when injected into mice) cell line that was obtained by transforming A-31 cells with H-ras isolated from a human bladder tumor. The ability of BBM-peptides and peptidomimetics to inhibit cell growth of these two related cell lines (A-31 and EJ3) was determined by MTT assay as described above.

[3] = system: p21ras plasma membrane association in EJ3 cells; test: p21ras membrane association in EJ3 cells (immunoprecipitation, Western blot); type: cell-based, murine; settings: FIG. 6
From the text: This is indicated by FIG. 6. EJ3 cells were exposed to saline, lovastatin, C-AMBA-M or BBM-C-AMBA-M and p21ras immunoprecipitated with the anti-ras antibody Y13-259 (Oncogene Science Inc.). Membrane-bound and cytosolic p21ras were separated by SDS-PAGE and Western blotted with an anti-p21ras antibody (Y13-259). Control cells (saline-treated) contained only membrane-bound p21ras.

[4] = biological target: T2, p21ras farnesyltransferase from human colon carcinoma (COLO-205) (Homo sapiens, UniProt P49354+P49356); test: p21ras farnesyltransferase activity assay, enzyme from COLO-205; type: biochemical; settings: for inhibition of p21ras farnesyltransferase (in words): human tumor enzyme (COLO-205 and Daudi), concentrations as high as 10 μM
T2 construct: p21ras farnesyltransferase from 60,000×g supernatant fractions was then partially purified by DEAE-sephacel chromatography; endogenous in cells; host or cells: COLO-205 human colon carcinoma cells (cytosolic 60,000×g supernatant, DEAE-sephacel fraction)
Method: (§2) Human colon carcinoma COLO-205 cells (ATCC, Rockville, Md.) were grown to confluency in RPMI containing 10% FBS, 1% penicillin/streptomycin at 37° C and 10% Co2 atmosphere. The cells were homogenized in lysis buffer (10 mM Hepes pH 7.4, 1 mM MgCl2, 1 mM EDTA, 0.1 mM DDT, and 0.1 mM PMSF) and centrifuged at 12,000×g followed by a 60,000×g centrifugation of the supernatant. p21ras farnesyltransferase from 60,000×g supernatant fractions was then partially purified by DEAE-sephacel chromatography where it was eluted with 50 mM Tris (pH 7.5) containing 0.4M NaCl. p21ras farnesyltransferase activity was determined by measuring the amount of [3H]FPP transferred to recombinant p21H-ras as previously described (15,16). p21H-ras was isolated from E. coli strain RRI expressing p21H-ras (Hoffman-LaRoche, Inc.) as described previously (25) except for the last step of purification where HPLC was replaced by DEAE-sephacel chromatography. For peptide inhibition studios, CA1 A2 X peptides and peptidomimetics were premixed with p21ras farnesyltransferase (40 μg) prior to adding the reaction mixture (50 Mm Tris (pH. 7.5), 50 μM ZnCl2, 20 mM KCl, 1 mM DTT, 20 μM p21H-ras, 9 mmol [3H]FPP). After incubation for one hour at 37° C., the reaction was stopped and filtered on glass fibers as described earlier (15,16).
(§3) To determine the potency of the novel peptidomimetics relative to their parent tetrapeptides, the potency of CA1 A2 X corresponding to the carboxyl terminus ends of p21 KA -ras, p21 KB -ras and p21N-ras to inhibit p21ras farnesyltransferase from human colon carcinoma (COLO-205) and Burkitt's lymphoma (Daudi) was determined.

[5] = biological target: T3, p21ras farnesyltransferase from Burkitt's lymphoma (Daudi) (Homo sapiens, UniProt P49354+P49356); test: p21ras farnesyltransferase activity assay, enzyme from Daudi; type: biochemical
T3 construct: Partially purified p21ras farnesyltransferase from human tumors; endogenous in cells; host or cells: Daudi Burkitt's lymphoma cells
T3 sequence (P49356 whole entry, one chain of several): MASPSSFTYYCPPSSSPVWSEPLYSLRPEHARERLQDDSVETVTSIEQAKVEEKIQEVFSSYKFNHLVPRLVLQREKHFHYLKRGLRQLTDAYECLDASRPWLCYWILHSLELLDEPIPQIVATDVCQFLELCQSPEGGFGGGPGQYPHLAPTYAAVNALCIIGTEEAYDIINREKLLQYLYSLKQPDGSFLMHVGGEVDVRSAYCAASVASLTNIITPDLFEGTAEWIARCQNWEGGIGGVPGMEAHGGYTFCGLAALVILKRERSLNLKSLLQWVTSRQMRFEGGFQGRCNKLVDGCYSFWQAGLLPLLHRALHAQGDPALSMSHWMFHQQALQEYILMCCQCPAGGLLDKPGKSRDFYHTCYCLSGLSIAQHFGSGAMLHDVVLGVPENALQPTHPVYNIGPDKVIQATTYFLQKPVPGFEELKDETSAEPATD
Method: as §2, §3

[6] = MTT, four days, FIG. 4A/4B, read-out: EJ3 cell growth inhibition IC50
[7] = Table 2, ras oncogene-transformed cells, read-out: IC50 (uM) Growth Studies
[8] = Table 2, read-out: IC50 (uM) Farnesyltransferase
[9] = enzyme from EJ3 cells, FIG. 5A/5B, read-out: p21ras farnesyltransferase IC50
[10] = partially purified enzyme from COLO-205, transfer of farnesyl to recombinant p21 H-ras, read-out: IC50 (μM) COLO-205
[11] = partially purified enzyme from Daudi, transfer of farnesyl to recombinant p21 H-ras, read-out: IC50 (μM) Daudi
[12] = read-out: IC50, p21ras farnesyltransferase from Daudi

| Molecule | IC50 [1, 7] [µM] | IC50 [2, 8] [µM] | IC50 [4, 10] [µM] | IC50 [5, 11] [µM] | other results |
| --- | --- | --- | --- | --- | --- |
| COC(=O)[C@H](CCSC)NC(=O)c1cccc(CNC(=O)[C@H](CSC(=O)OCc2ccccc2)NC(=O)OCc2ccccc2)c1 [BBM-C-AMBA-M, N, S-DiCBZ-Cys-AMBA-Met-OCH3] | 12.1 ± 1 | > 100 |  |  | IC50 [1, 6]: 10 µM; IC50 ([1]; MTT, selectivity study, FIG. 7A/7B, read-out: EJ3 cell growth inhibition IC50): 20 µM; IC50 [2, 9]: > 100 µM; effect on A-31 cell growth (in words) (A-31 cells): not much affected; inhibition of p21ras plasma membrane association (in words) [3]: inhibited p21ras plasma membrane association |
| CC[C@H](C)[C@H](NC(=O)[C@@H](NC(=O)[C@H](CSC(=O)OCc1ccccc1)NC(=O)OCc1ccccc1)C(C)C)C(=O)N[C@@H](CCSC)C(=O)OC [BBM-CVIM] (Cbz-C(Cbz)VIM-OMe) |  | > 100 |  |  | IC50 [2, 9]: > 10 µM |
| NCCCC[C@H](NC(=O)c1cccc(CNC(=O)[C@@H](N)CS)c1)C(=O)O [C-AMBA-K, Cys-AMBA-Lys] |  |  | > 10 | > 10 | inhibition of p21ras farnesyltransferase (in words) [4]: abolished p21ras farnesyltransferase inhibition activity |
| O=C(N[C@@H](CSC(=O)OCc1ccccc1)C(=O)O)OCc1ccccc1 [BB-Cys, N S-DiCBZ-cysteine] | 275 ± 41 |  |  |  |  |
| CC[C@H](C)[C@H](NC(=O)[C@@H](NC(=O)[C@@H](N)CS)C(C)C)C(=O)N[C@@H](CCSC)C(=O)O [CVIM, Cys-Val-Ile-Met, reference compound] (H-CVIM-OH) |  | 0.35 |  |  | IC50 [5, 12]: 0.19 µM; IC50 ([2]; enzyme from EJ3 cells, FIG. 5A, read-out: p21ras farnesyltransferase IC50): 0.4 µM |
| Ser-AMBA-Met [S-AMBA-M] |  |  | > 10 | > 10 | inhibition of p21ras farnesyltransferase (in words) [4]: did not inhibit |
| CC[C@H](C)C(=O)O[C@H]1C[C@@H](C)C=C2C=C[C@H](C)[C@H](CC[C@@H]3C[C@@H](O)CC(=O)O3)[C@H]21 [Lovastatin, reference compound] |  |  |  |  | inhibition of p21ras plasma membrane association (in words) [3]: inhibited p21ras membrane association |
| Cys-AMBA-Glu [C-AMBA-E] |  |  | 1.42 | 1.54 | reduction of ability to inhibit the enzyme relative to Cys-AMBA-Met ([4]; COLO-205): 24 fold; reduction of ability to inhibit the enzyme relative to Cys-AMBA-Met ([5]; Daudi): 13 fold |
| CSCC[C@H](NC(=O)[C@@H](NC(=O)[C@@H](NC(=O)[C@@H](N)CS)C(C)C)C(C)C)C(=O)O [CVVM, Cys-Val-Val-Met, reference compound] (H-CVVM-OH) |  |  | 0.46 | 0.61 |  |
| CC[C@H](C)[C@H](NC(=O)[C@@H](NC(=O)[C@H](CSC(=O)OCc1ccccc1)NC(=O)OCc1ccccc1)C(C)C)C(=O)N[C@@H](CCSC)C(=O)OC [BBM-VCIM] (Cbz-C(Cbz)VIM-OMe) | 215 ± 66 |  |  |  |  |
| CC[C@H](C)[C@H](NC(=O)[C@@H](NC(=O)[C@@H](N)CS)C(C)C)C(=O)N[C@@H](CCSC)C(=O)OC [M-CVIM] (HELM PEPTIDE1{C.V.I.M.[CO[*:1]]}$$$$V2.0) | 200 ± 58 | 4.5 |  |  |  |
| N[C@@H](CS)C(=O)NCc1cccc(C(=O)N[C@@H](Cc2ccccc2)C(=O)O)c1 [C-AMBA-F, Cys-AMBA-Phe] |  |  | 0.53 | 0.6 | IC50 [5, 12]: 0.6 µM |
| CSCC[C@H](NC(=O)c1cccc(CNC(=O)[C@@H](N)CS)c1)C(=O)O [C-AMBA-M, Cys-AMBA-Met] | 627 ± 178 | 3.1 | 0.06 |  | increase in potency over CIIM ([4]; COLO-205): 8.8 fold; increase in potency over CVIM ([4]; COLO-205): 3.3 fold; increase in potency over CVVM ([4]; COLO-205): 7.7 fold; IC50 ([4]; read-out: IC50, p21ras farnesyltransferase from COLO-205): 0.06 µM; increase in potency over CIIM ([5]; Daudi): 6.9 fold; increase in potency over CVIM ([5]; Daudi): 1.6 fold; increase in potency over CVVM ([5]; Daudi): 5.1 fold; IC50 [5, 12]: 0.12 µM; IC50 [1, 6]: 1500 µM; IC50 [2, 9]: 2 µM; inhibition of p21ras plasma membrane association (in words) [3]: did not inhibit p21ras plasma association |
| CC[C@H](C)[C@H](NC(=O)[C@@H](NC(=O)[C@@H](N)CS)[C@@H](C)CC)C(=O)N[C@@H](CCSC)C(=O)O [CIIM, reference compound] (H-CIIM-OH) |  |  | 0.53 | 0.83 |  |
| CC(C)C[C@H](NC(=O)c1cccc(CNC(=O)[C@@H](N)CS)c1)C(=O)O [C-AMBA-L, Cys-AMBA-Leu] |  |  | > 10 | > 10 | inhibition of p21ras farnesyltransferase (in words) [4]: had no inhibitory activity |
| CC[C@H](C)[C@H](NC(=O)[C@H](CS)NC(=O)[C@@H](N)C(C)C)C(=O)N[C@@H](CCSC)C(=O)O [VCIM, reference compound] (H-VCIM-OH) |  | 40 | > 10 | > 10 | IC50 [2, 9]: > 10 µM |
